# Assay results as given in US7410975B2, “Small molecule toll-like receptor (TLR) antagonists” (Coley Pharmaceutical Group, Inc., priority 2003, dated 2008).
# Structures can show the parent of a compound that is named as a salt.
# Biological target: T1, human TLR8 (hTLR8) (Homo sapiens, UniProt Q9NR97)
# T1 construct: expressed in transfected cells
# T1 sequence (Q9NR97 27-1041): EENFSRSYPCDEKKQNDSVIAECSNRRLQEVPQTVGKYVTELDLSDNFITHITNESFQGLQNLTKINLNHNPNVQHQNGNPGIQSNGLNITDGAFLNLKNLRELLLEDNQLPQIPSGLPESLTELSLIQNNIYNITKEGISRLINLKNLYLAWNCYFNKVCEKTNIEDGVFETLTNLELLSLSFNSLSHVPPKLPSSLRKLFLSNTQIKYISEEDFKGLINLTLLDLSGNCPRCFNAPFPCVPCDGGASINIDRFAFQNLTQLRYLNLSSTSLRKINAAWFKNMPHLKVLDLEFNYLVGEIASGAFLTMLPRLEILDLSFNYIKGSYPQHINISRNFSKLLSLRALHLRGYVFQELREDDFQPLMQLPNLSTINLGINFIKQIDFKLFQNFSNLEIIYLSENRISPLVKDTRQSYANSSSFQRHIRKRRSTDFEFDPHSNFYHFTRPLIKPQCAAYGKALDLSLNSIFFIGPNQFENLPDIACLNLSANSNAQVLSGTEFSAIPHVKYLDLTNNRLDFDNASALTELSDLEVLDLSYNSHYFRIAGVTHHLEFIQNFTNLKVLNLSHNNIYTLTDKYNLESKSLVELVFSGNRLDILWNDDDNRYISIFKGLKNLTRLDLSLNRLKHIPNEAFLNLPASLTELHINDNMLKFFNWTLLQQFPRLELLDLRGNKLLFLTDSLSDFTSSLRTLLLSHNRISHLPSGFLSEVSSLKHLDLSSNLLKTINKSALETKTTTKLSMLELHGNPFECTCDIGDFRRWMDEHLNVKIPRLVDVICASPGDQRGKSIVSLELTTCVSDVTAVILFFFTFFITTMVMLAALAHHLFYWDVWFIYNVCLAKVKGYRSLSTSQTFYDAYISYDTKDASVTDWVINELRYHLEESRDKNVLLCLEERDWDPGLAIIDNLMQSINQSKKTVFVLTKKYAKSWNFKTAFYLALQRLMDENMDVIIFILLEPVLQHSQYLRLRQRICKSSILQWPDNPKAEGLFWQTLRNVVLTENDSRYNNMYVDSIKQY
# Experiment: Antagonist screen, hTLR8-NFκB-293 cells, NF-κB-luciferase reporter, with EC50 of R848
# Assay type: cell-based
# Settings: compound at 0.5, 5, 50 μg/ml; EC50 concentration of R848; 16 h; NF-κB-luciferase
# Description: The method is described in greater detail as follows. The cells for each individual cell clone (hTLR3-NFκB-293, hTLR7-NFκB-293, hTLR8-NFκB-293 and hTLR9-NFκB-293) were counted and seeded one day before the stimulation at 1.5×10^4 cells per well in 96-well cell culture plates. To become adherent the cells were incubated after seeding overnight at 37° C. in 5% CO2 humidified air.
# The screen for each compound was performed at the same time for all of the receptors TLR3, TLR7, TLR8 and TLR9. Up to fifteen test compounds, each assayed in duplicate at each of three different final concentrations (0.5 μg/ml, 5 μg/ml, and 50 μg/ml), were used for 16 h cell stimulation on a single multiwell culture plate. A 4× final concentration master plate was created to prepare the different test compounds before they were added to the cells.
# Controls were added as duplicates individually for each cell clone on the cell culture plate. Positive controls were used as follows (final concentrations): 50 μg/ml poly(I:C) for hTLR3-NFκB-293; 8 μM resiquimod (R848) for hTLR7-NFκB-293; 30 μM R848 for hTLR8-NFκB-293; and 2.5 μM CpG-ODN 2006 for hTLR9-NFκB-293. Media alone was used as negative control. After addition of controls and small molecules, the cell clones were additionally stimulated with the EC50 concentration of the appropriate receptor-specific ligand.
# The mean value of wells H2 and H5 (each with cells and EC50 concentration of the appropriate receptor-specific ligand) divided by the mean of wells H3 and H6 (each with cells alone) yielded the baseline response (i.e., fold induction of luciferase activity) to EC50 concentration of the appropriate receptor-specific ligand.
# After 16 h stimulation the supernatant was removed and the cells treated with lysis buffer and stored at −80° C. before measuring.
# For each screen result a graphical documentation was performed.
# The baseline result (measured with addition of the EC50 concentration of the receptor-specific ligand) for each cell culture plate was measured as described above. Antagonistic effects were measured by down regulation compared to the baseline. Antagonists were scored as follows: • 13: compounds for which there was clear down regulation at 0.5 μg/ml, 5 μg/ml, and 50 μg/ml; • 12: compounds for which there was clear down regulation at 5 μg/ml and 50 μg/ml; • 11: compounds for which there was clear down regulation only at 50 μg/ml; • —: compounds for which there was no clear down regulation even at 50 μg/ml. Agonists
# Results were expressed as fold induction over baseline luciferase activity measured in the absence of R848. […] Additional screening was performed in like manner using additional small molecules selected from another library or specifically prepared for this purpose. Scoring is reported as above but as applied to TLR8.
row,Compound,"hTLR8 (inhibitory effect, antagonist score)"
1,CCOC(=O)c1cc([N+](=O)[O-])cc2c1-c1ccc([N+](=O)[O-])cc1C2=C(C#N)C#N [compound 1039],11 (compounds for which there was clear down regulation only at 50 μg/ml)
2,"CN1CCN(CCCN2c3ccccc3Sc3ccc(S(=O)(=O)N(C)C)cc32)CC1.CS(=O)(=O)O.CS(=O)(=O)O [compound 149, Thioproperasinedimesylate]",— (compounds for which there was no clear down regulation even at 50 μg/ml)
3,CCN(CC)CCCN(CC(=O)C1c2ccc(Cl)cc2NC(=O)c2ccccc21)C(=O)c1ccccc1 (centres unmarked) [compound 1013],— (compounds for which there was no clear down regulation even at 50 μg/ml)
4,O=C(O)c1ccc(C2(c3ccc(C(=O)O)cc3)OC(=O)c3ccccc32)cc1 [compound 970],— (compounds for which there was no clear down regulation even at 50 μg/ml)
5,"CN1CCC(=C2c3ccccc3Sc3ccccc32)CC1.O=C(O)/C=C\C(=O)O [compound 294, Pimethixene maleate]",11 (compounds for which there was clear down regulation only at 50 μg/ml)
6,"Cc1nccc2c1[nH]c1ccccc12 [compound 620, Harmane hydrochloride]",— (compounds for which there was no clear down regulation even at 50 μg/ml)
7,"CC(=O)c1ccc2c(c1)N(CCCN(C)C)c1ccccc1S2.O=C(O)/C=C\C(=O)O [compound 576, Acetopromazinemaleate salt]",— (compounds for which there was no clear down regulation even at 50 μg/ml)
8,"OC(c1ccccc1)(c1ccccc1)C1CCNCC1 [compound 93, Azacyclonol]",— (compounds for which there was no clear down regulation even at 50 μg/ml)
9,O=C(O)c1cccc2c1-c1ccccc1/C2=N/Nc1ccc([N+](=O)[O-])cc1[N+](=O)[O-] [compound 944],— (compounds for which there was no clear down regulation even at 50 μg/ml)
10,"CN1CCC(OC(c2ccccc2)c2ccccc2)CC1.Cl [compound 707, Diphenylpyralinehydrochloride]",— (compounds for which there was no clear down regulation even at 50 μg/ml)
11,Trifluoperazinedihydrochloride [compound 313],11 (compounds for which there was clear down regulation only at 50 μg/ml)
12,"Clc1ccccc1C(c1ccccc1)(c1ccccc1)n1ccnc1 [compound 267, Clotrimazole]",12 (compounds for which there was clear down regulation at 5 μg/ml and 50 μg/ml)
13,"CC(NCCC(c1ccccc1)c1ccccc1)c1ccccc1.Cl (centres unmarked) [compound 270, Fendiline hydrochloride]",12 (compounds for which there was clear down regulation at 5 μg/ml and 50 μg/ml)
14,"OCc1cc2c(cn1)[nH]c1ccccc12 [compound 878, 3-hydroxymethyl-beta-carboline]",— (compounds for which there was no clear down regulation even at 50 μg/ml)
15,O=C(O)c1cccc2c1/C(=N/O)c1ccccc1-2 [compound 918],— (compounds for which there was no clear down regulation even at 50 μg/ml)
16,Cc1cccc(C2(c3cccc(C)c3)OC(=O)c3ccccc32)c1 [compound 1308],12 (compounds for which there was clear down regulation at 5 μg/ml and 50 μg/ml)
17,"Cc1cccc(C)c1NC(=O)CN1CCN(CCCC(c2ccc(F)cc2)c2ccc(F)cc2)CC1 [compound 381, Lidoflazine]",11 (compounds for which there was clear down regulation only at 50 μg/ml)
